Measurements as given in patent US20230055961A1, “PENTAFLUOROBENZENESULFONAMIDE DERIVATIVES AND USES THEREOF” (Dunad Therapeutics Ltd., priority 2019, published 2023).

Columns and labels:
Type in all cases: biochemical
BTK = BTK (Homo sapiens, UniProt Q06187); experiment: Enzyme kinetic analysis of BTK inhibition (time-dependent inhibition); details: 0.1 nM BTK, 500 μM ATP, 60-700 nM compound
Text: One of ordinary skill in the art will recognize that this is consistent with the irreversible inhibition of BTK by Compound 5-1.

BMX [1] = molecular target: T1, BMX (Homo sapiens, UniProt P51813); experiment: In vitro kinase inhibition studies (Table 9), BMX
T1 sequence (P51813 1-675): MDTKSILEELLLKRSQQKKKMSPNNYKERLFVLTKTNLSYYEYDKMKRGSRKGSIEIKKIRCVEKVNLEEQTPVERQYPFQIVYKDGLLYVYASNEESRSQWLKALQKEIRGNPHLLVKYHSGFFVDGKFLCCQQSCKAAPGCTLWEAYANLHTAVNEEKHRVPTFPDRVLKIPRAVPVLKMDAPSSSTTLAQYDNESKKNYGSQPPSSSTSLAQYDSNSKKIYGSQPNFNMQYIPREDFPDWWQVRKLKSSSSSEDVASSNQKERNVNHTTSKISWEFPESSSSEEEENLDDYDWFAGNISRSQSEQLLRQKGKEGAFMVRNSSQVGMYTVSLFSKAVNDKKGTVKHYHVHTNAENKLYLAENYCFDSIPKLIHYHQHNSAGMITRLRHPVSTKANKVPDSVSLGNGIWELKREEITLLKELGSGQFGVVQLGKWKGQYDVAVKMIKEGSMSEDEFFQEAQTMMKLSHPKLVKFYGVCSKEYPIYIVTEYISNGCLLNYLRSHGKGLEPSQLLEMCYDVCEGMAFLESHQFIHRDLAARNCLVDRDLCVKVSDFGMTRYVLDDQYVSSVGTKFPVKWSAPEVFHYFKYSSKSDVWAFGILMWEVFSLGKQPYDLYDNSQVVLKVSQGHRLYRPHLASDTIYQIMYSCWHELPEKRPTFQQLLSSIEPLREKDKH

FGFR1 = FGFR1 (Homo sapiens, UniProt P11362); experiment: In vitro kinase inhibition studies (Table 9), FGFR1
BLK = BLK (Homo sapiens, UniProt P51451); experiment: In vitro kinase inhibition studies (Table 13), BLK
BLK, sequence (P51451 whole entry, species assumed): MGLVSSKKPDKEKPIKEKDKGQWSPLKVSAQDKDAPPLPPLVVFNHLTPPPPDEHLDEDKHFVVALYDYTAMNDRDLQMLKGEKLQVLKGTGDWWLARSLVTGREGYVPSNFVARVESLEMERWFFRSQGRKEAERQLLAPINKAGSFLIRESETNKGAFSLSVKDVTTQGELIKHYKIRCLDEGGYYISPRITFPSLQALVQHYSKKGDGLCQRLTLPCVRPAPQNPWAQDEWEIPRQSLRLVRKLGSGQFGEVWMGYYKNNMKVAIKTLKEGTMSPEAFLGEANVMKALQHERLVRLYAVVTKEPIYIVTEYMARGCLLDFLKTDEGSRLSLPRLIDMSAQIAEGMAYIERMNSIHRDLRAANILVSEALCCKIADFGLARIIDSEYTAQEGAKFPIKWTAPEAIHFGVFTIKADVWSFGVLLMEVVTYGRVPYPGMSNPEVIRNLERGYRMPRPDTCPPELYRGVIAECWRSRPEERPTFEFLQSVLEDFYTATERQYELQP

BMX [2] = molecular target: T1, BMX; experiment: In vitro kinase inhibition studies (Table 13), BMX
JAK3 = molecular target: T2, JAK3 (Homo sapiens, UniProt P52333); experiment: In vitro kinase inhibition studies (Table 13), JAK3
T2 sequence (P52333 1-1124): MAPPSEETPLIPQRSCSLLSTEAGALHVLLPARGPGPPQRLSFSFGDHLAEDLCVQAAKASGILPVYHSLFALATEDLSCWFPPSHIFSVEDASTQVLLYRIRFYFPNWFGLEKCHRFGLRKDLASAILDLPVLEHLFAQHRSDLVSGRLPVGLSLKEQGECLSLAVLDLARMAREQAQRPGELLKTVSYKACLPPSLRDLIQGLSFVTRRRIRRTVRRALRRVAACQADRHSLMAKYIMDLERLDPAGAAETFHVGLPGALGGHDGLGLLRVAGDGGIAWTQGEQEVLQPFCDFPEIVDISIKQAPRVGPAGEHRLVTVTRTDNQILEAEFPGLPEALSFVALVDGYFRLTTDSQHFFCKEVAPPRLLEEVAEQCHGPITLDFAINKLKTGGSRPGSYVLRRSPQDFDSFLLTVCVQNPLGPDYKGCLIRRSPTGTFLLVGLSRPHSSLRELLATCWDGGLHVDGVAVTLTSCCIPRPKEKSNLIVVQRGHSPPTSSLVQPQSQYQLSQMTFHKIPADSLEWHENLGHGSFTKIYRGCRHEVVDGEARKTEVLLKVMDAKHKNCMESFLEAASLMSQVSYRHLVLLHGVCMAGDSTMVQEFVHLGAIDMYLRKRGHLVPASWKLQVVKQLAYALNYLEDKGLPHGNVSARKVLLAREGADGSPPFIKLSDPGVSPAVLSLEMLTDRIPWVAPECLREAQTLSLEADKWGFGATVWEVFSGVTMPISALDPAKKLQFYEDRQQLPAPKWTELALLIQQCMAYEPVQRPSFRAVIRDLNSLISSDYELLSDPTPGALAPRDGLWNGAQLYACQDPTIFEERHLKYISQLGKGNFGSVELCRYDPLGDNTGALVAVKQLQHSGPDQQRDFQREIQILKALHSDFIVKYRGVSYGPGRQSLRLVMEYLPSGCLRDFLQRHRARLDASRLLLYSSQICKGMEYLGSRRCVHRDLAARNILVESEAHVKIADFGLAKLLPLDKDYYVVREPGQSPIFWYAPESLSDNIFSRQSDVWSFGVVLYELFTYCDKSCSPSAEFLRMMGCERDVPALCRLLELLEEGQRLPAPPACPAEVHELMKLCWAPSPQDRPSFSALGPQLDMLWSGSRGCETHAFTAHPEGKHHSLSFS

MAP2K7 = MAP2K7 (Homo sapiens, UniProt O14733); experiment: In vitro kinase inhibition studies (Table 13), MAP2K7
EGFR = EGFR (Homo sapiens, UniProt P00533); experiment: In vitro kinase inhibition studies (Table 13), EGFR
EGFR L850R = EGFR L850R (Homo sapiens, UniProt P00533); experiment: In vitro kinase inhibition studies (Table 13), EGFR L850R
EGFR L850R, sequence (P00533 whole entry L858R, form open): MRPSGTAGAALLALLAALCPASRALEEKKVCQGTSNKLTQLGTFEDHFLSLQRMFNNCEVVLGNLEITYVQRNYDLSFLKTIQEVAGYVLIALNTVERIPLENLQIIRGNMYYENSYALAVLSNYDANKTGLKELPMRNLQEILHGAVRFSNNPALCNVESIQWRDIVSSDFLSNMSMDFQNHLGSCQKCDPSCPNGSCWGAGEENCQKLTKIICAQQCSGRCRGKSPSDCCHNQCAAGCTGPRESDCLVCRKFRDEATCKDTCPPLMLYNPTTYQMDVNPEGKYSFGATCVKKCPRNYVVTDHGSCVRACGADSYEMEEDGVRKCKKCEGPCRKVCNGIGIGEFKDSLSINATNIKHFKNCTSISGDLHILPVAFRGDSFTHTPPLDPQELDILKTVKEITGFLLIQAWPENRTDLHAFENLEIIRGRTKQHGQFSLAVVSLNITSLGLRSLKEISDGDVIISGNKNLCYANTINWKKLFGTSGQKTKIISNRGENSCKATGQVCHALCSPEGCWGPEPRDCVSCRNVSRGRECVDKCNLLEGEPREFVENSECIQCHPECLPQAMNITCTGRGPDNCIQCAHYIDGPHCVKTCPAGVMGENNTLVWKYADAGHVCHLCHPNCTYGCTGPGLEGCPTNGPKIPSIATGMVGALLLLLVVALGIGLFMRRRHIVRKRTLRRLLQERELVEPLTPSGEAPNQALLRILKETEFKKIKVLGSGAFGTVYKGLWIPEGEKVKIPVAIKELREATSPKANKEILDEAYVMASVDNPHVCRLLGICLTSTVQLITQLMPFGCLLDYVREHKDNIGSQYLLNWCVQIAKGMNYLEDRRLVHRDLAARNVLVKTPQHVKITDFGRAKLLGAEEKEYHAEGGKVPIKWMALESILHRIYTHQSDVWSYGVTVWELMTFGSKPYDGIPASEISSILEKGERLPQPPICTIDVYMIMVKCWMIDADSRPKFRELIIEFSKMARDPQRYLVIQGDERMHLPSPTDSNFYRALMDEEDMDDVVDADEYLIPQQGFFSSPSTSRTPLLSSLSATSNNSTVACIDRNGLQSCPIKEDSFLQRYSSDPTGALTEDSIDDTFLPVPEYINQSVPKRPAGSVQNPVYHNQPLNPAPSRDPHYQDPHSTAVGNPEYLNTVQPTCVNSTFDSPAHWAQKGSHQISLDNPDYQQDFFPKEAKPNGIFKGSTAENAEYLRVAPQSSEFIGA

EGFR L850R, T790M = EGFR L850R, T790M (Homo sapiens, UniProt P00533, T790M, form not given); experiment: In vitro kinase inhibition studies (Table 13), EGFR L850R, T790M
ERBB2 = ERBB2 (Homo sapiens, UniProt P04626); experiment: In vitro kinase inhibition studies (Table 13), ERBB2
ERBB2, sequence (P04626 23-1255, species assumed): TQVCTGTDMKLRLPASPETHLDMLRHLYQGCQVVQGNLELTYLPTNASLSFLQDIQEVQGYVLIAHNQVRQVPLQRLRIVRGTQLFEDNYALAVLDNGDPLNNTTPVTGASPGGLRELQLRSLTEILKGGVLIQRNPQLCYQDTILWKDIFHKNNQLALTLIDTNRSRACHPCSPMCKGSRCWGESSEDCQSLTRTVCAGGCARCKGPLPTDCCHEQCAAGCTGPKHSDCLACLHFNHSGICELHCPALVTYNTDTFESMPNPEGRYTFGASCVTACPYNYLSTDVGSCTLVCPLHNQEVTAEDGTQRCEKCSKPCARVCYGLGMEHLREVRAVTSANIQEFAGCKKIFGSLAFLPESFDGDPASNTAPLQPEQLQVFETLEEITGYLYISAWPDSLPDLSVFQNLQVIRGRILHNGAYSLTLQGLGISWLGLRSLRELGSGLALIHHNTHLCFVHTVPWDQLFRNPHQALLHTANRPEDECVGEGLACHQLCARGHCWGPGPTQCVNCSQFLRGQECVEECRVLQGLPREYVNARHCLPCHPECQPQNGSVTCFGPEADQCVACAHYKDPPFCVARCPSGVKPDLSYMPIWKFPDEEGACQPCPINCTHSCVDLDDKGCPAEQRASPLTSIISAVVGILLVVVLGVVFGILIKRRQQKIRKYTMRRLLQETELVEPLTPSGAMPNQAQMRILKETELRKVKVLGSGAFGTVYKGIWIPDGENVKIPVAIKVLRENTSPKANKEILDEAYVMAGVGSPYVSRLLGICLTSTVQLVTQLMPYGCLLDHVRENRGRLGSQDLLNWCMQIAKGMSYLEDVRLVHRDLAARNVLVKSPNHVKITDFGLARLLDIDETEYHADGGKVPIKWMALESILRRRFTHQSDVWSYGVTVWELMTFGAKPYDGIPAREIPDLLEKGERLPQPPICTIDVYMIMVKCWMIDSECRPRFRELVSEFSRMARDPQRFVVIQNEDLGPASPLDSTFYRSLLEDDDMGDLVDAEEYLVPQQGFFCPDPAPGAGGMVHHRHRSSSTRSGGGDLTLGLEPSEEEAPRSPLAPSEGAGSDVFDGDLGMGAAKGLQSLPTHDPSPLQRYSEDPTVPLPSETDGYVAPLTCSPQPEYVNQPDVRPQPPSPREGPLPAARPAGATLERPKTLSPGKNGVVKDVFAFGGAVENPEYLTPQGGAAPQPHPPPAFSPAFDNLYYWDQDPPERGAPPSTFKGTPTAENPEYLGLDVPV

ERBB4 = ERBB4 (Homo sapiens, UniProt Q15303); experiment: In vitro kinase inhibition studies (Table 13), ERBB4
ERBB4, sequence (Q15303 26-1308, species assumed): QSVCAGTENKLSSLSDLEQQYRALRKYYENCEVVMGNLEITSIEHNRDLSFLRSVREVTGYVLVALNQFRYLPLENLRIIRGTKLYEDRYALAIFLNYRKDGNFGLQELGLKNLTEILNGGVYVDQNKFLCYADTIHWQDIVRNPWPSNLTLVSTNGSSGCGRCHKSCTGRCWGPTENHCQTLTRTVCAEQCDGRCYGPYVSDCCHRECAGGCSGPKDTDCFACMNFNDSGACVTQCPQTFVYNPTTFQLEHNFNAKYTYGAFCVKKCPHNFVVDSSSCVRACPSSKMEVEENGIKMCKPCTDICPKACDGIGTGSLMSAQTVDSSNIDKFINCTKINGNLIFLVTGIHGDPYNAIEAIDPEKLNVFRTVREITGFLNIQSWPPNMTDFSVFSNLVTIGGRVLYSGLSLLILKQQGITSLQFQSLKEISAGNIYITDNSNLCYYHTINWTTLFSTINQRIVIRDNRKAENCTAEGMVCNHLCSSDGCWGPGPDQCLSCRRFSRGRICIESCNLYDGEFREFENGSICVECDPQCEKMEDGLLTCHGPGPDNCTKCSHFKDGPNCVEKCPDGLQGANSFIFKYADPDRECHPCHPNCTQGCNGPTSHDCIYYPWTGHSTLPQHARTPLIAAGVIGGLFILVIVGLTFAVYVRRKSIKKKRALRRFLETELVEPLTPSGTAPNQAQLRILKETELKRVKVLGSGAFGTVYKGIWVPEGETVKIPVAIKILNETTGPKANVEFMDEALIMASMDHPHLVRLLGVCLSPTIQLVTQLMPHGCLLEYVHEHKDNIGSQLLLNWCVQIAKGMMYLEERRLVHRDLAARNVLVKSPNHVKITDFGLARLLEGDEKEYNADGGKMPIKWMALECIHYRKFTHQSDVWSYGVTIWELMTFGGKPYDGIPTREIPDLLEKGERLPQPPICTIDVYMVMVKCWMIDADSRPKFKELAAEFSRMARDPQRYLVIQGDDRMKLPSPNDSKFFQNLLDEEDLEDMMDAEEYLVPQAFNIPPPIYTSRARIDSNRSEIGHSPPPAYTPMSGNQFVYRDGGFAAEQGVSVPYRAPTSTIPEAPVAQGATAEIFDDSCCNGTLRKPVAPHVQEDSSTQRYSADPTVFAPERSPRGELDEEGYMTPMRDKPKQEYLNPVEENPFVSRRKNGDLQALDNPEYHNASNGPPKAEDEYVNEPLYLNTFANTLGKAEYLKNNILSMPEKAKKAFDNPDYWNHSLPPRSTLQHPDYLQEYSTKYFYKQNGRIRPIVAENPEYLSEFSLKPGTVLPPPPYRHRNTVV

FGFR = experiment: In vitro kinase inhibition studies (Table 13), FGFR
SRC = SRC (Homo sapiens, UniProt P12931); experiment: In vitro kinase inhibition studies (Table 13), SRC

BTK, sequence (Q06187 whole entry, species assumed): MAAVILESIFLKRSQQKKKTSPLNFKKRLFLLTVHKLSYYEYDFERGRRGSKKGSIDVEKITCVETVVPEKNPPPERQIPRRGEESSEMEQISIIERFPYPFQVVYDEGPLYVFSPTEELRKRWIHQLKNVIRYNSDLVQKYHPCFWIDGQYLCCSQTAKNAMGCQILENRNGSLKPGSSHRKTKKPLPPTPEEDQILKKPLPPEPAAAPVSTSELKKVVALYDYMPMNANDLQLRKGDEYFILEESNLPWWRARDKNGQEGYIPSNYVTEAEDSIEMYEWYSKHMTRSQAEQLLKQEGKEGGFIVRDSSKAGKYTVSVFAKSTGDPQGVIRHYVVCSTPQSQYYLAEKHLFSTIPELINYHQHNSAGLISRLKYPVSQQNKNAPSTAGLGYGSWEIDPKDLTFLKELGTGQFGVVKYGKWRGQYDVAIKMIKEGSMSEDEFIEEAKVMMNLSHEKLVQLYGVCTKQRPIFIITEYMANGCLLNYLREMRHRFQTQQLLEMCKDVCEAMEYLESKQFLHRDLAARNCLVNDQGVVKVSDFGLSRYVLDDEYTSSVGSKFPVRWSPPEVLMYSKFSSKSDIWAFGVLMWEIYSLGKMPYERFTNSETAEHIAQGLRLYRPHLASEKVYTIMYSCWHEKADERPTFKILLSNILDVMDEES

inhibition profile of BTK by enzyme kinetic analysis (BTK): time-dependent inhibition | IC50 (BMX [1]): 0.1 to 10 nM | IC50 (FGFR1): 10 to 300 nM | IC50 (BLK): 100 to 1000 nM | IC50 (BMX [2]): 0.1 to 10 nM | IC50 (JAK3): 100 to 1000 nM | IC50 (MAP2K7): 10 to 100 nM | IC50 (EGFR): 100 to 1000 nM | IC50 (EGFR L850R): 100 to 1000 nM | IC50 (EGFR L850R, T790M): 100 to 1000 nM | IC50 (ERBB2): 100 to 1000 nM | IC50 (ERBB4): 100 to 1000 nM | IC50 (FGFR): 100 to 1000 nM | IC50 (SRC): 100 to 1000 nM
SMILES: Nc1ncnc2c1c(-c1ccc(Oc3ccccc3)cc1)nn2[C@@H]1CCCN(S(=O)(=O)c2c(F)c(F)c(F)c(F)c2F)C1 [Compound 5-1, (R)-1-(1-((perfluorophenyl)sulfonyl)piperidin-3-yl)-3-(4-phenoxyphenyl)-1H-pyrazolo[3,4-d]pyrimidin-4-amine]
